pIC50: −log10 of the molar value.

The target in the experiment is dog PDE3A recombinant enzyme (Canis lupus familiaris, UniProt A0A8I3NYE0). Description: cPDE3A assay (fluorescent polarization). It is filed as biochemical. The note with it: canine PDE3A, read-out: cPDE3 Inhibition (IC50). How it is done: cPDE3A Assay (Fluorescent Polarization)
dog PDE3A recombinant enzyme, sequence (A0A8I3NYE0 1-1135): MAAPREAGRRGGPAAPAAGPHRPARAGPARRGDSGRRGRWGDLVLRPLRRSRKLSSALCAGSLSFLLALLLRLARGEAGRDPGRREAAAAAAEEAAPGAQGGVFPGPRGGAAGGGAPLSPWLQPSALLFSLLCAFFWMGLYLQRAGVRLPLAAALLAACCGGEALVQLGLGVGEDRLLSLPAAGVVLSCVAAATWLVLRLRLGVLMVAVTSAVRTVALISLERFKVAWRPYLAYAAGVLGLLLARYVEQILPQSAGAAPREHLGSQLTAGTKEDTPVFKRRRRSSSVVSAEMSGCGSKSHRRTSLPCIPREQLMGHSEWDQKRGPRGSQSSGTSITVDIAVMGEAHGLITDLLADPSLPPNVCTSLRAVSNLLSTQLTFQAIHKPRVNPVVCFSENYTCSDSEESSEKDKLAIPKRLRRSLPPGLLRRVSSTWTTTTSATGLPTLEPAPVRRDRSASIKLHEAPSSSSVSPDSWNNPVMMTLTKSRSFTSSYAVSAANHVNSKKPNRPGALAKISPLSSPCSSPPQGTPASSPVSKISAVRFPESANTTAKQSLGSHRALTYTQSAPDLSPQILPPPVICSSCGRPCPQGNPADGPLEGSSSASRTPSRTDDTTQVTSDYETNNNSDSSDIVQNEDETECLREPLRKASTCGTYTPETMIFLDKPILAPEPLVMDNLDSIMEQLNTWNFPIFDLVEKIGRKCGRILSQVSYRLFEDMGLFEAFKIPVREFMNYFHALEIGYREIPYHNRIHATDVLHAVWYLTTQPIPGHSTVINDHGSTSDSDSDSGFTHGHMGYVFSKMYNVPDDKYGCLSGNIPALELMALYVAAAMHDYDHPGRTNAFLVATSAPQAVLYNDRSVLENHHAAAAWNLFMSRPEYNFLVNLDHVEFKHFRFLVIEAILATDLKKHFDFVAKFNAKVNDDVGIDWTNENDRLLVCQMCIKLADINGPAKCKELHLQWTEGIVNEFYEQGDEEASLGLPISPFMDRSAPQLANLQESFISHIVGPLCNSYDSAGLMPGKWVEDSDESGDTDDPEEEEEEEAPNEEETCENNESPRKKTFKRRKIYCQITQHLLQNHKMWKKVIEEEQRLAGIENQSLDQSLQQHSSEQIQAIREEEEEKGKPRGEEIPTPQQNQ
The canine PDE3A assay kit was purchased from BPS Bioscience (San Diego, CA) which included dog PDE3A recombinant enzyme, FAM-cyclic-3′,5′-AMP (20 μM), PDE3 assay buffer, binding agent, binding agent diluent and microtiter 96-well plates. Compounds were initially dissolved in DMSO. The stock concentration was subsequently diluted in cPDE assay buffer (10× stock) and serially diluted to give a concentration response curve starting at 10 μM (≥7 total concentrations). Following the serial dilution, compound solution (0.1% final DMSO) was transferred to an assay plate (96-well) where the remaining canine PDE3A assay reagents were dispensed according to the BPS Bioscience® protocol (catalog #79735) procedure using a final concentration of 5 pg/μL of enzyme. Each compound was evaluated for the inhibition of the canine PDE3A enzyme activity using the measurement of fluorescent polarization changes. The 50% inhibition concentration (IC50) nM was calculated and reported.
With `COc1cc(-c2cc(C3=NNC(=O)CC3C)cc3c2NC(=O)CC3)ccn1` (stereo not drawn) [Example #1, 8-(2-methoxypyridin-4-yl)-6-(4-methyl-6-oxo-1,4,5,6-tetrahydropyridazin-3-yl)-3,4-dihydroquinolin-2 (1H)-one], the pIC50 (in general, the IC50 on a negative log10 scale, so that one unit is a factor of ten) was 7.53.
As to `CC1CC(=O)NN=C1c1cc2c(c(-c3nccs3)c1)NC(=O)CC2` (stereo not drawn) [Example #2, 6-(4-methyl-6-oxo-1,4,5,6-tetrahydropyridazin-3-yl)-8-(thiazol-2-yl)-3,4-dihydroquinolin-2 (1H)-one], the pIC50 is 7.63.
Next, `CC1CC(=O)NN=C1c1cc(Br)c2c(c1)CCC(=O)N2` (stereo not drawn) [Example #3, 8-bromo-6-(4-methyl-6-oxo-1,4,5,6-tetrahydropyridazin-3-yl)-3,4-dihydroquinolin-2 (1H)-one]: 8.49.
Next, `COc1ncc(-c2cc(C3=NNC(=O)CC3C)cc3c2NC(=O)CC3)s1` (stereo not drawn) [Example #4, 8-(2-methoxythiazol-5-yl)-6-(4-methyl-6-oxo-1,4,5,6-tetrahydropyridazin-3-yl)-3,4-dihydroquinolin-2 (1H)-one]: 7.61; `CC1CC(=O)NN=C1c1ccc2nc(Nc3ccc(S(C)(=O)=O)cc3)n(C)c2c1` (stereo not drawn) [Example #5, 5-methyl-6-(1-methyl-2-((4-(methylsulfonyl)phenyl)amino)-1H-benzo[d]imidazol-6-yl)-4,5-dihydropyridazin-3 (2H)-one]: 8.31; `O=C1Cc2cc(-c3ccc(=O)[nH]n3)cc(-c3ccc(Cl)cc3)c2N1` [Example #7, 7-(4-chlorophenyl)-5-(6-oxo-1,6-dihydropyridazin-3-yl)indolin-2-one]: 7.39.
`CC1CC(=O)NN=C1c1cc(Cl)c2c(c1)C1(CC1)C(=O)N2` (stereo not drawn) [Example #8, 7′-chloro-5′-(4-methyl-6-oxo-1,4,5,6-tetrahydropyridazin-3-yl)spiro[cyclopropane-1,3′-indolin]-2′-one]: the pIC50 is 8.41.
As to `O=C1CCc2cc(-c3ccc(=O)[nH]n3)cc(-c3ccc(Cl)cc3)c2N1` [Example #9, 8-(4-chlorophenyl)-6-(6-oxo-1,6-dihydropyridazin-3-yl)-3,4-dihydroquinolin-2 (1H)-one], the pIC50 was 7.87.
Consider `CC1CC(=O)NN=C1c1cc2c(c(-c3cccnc3)c1)NC(=O)CC2` (stereo not drawn) [Example #13, 6-(4-methyl-6-oxo-1,4,5,6-tetrahydropyridazin-3-yl)-8-(pyridin-3-yl)-3,4-dihydroquinolin-2 (1H)-one], for which the pIC50 was 7.35.
As for `Cc1cc(=O)[nH]nc1-c1cc(-c2cscn2)c2c(c1)C(C)(C)C(=O)N2` [Example #17, 3,3-dimethyl-5-(4-methyl-6-oxo-1,6-dihydropyridazin-3-yl)-7-(thiazol-4-yl)indolin-2-one], the pIC50 was 7.20.
Next, `COc1ccc(-c2cc(C3=NNC(=O)CC3C)cc3c2NC(=O)CCC3)cn1` (stereo not drawn) [Example #18, 9-(6-methoxypyridin-3-yl)-7-(4-methyl-6-oxo-1,4,5,6-tetrahydropyridazin-3-yl)-1,3,4,5-tetrahydro-2H-benzo[b]azepin-2-one]: 7.38; `CC1(C)C(=O)Nc2c(F)cc(-c3ccc(=O)[nH]n3)cc21` [Example #27, 7-fluoro-3,3-dimethyl-5-(6-oxo-1,6-dihydropyridazin-3-yl)indolin-2-one]: 7.42.
On to `CC1CC(=O)NN=C1c1cc(Cl)c2nc(N)sc2c1` (stereo not drawn) [Example #30, 6-(2-amino-4-chlorobenzo[d]thiazol-6-yl)-5-methyl-4,5-dihydropyridazin-3 (2H)-one], for which the pIC50 is 8.40.
With `CC1CC(=O)NN=C1c1cc(F)c2nc(N)sc2c1` (stereo not drawn) [Example #31, 6-(2-amino-4-fluorobenzo[d]thiazol-6-yl)-5-methyl-4,5-dihydropyridazin-3 (2H)-one], the pIC50 is 8.26.
Regarding `CC1(C)C(=O)Nc2c(Br)cc(-c3ccc(=O)[nH]n3)cc21` [Example #32, 7-bromo-3,3-dimethyl-5-(6-oxo-1,6-dihydropyridazin-3-yl)indolin-2-one], the pIC50 was 7.57.
Consider `C[C@@H]1CC(=O)NN=C1c1cc(Cl)c2c(c1)C(C)(C)C(=O)N2` [Example #33, (R)-7-chloro-3,3-dimethyl-5-(4-methyl-6-oxo-1,4,5,6-tetrahydropyridazin-3-yl)indolin-2-one], for which the pIC50 is 8.49.
In the case of `CNc1nc2c(F)cc(C3=NNC(=O)CC3C)cc2s1` (stereo not drawn) [Example #34, 6-(4-fluoro-2-(methylamino)benzo[d]thiazol-6-yl)-5-methyl-4,5-dihydropyridazin-3 (2H)-one], the negative logarithm of the IC50 (pIC50) was 8.43.
As to `CC1CC(=O)NN=C1c1cc(Cl)c2[nH]c(=O)ccc2c1` (stereo not drawn) [Example #35, 8-chloro-6-(4-methyl-6-oxo-1,4,5,6-tetrahydropyridazin-3-yl)quinolin-2 (1H)-one], the pIC50 is 8.49.
As to `CC1CC(=O)NN=C1c1cc2c(c(Cl)c1F)NC(=O)C2(C)C` (stereo not drawn) [Example #36, 7-chloro-6-fluoro-3,3-dimethyl-5-(4-methyl-6-oxo-1,4,5,6-tetrahydropyridazin-3-yl)indolin-2-one], the pIC50 is 8.44.
On to `CC1CC(=O)NN=C1c1cc(F)c2nc(N3CC(O)C3)sc2c1` (stereo not drawn) [Example #37, 6-(4-fluoro-2-(3-hydroxyazetidin-1-yl)benzo[d]thiazol-6-yl)-5-methyl-4,5-dihydropyridazin-3 (2H)-one], for which the pIC50 was 8.21.
To `CC1CC(=O)NN=C1c1cc(C#N)c2nc(N)sc2c1` (stereo not drawn) [Example #38, 2-amino-6-(4-methyl-6-oxo-1,4,5,6-tetrahydropyridazin-3-yl)benzo[d]thiazole-4-carbonitrile] belongs 8.13; to `CC1CC(=O)NN=C1c1cc(Cl)c2c(c1)CNC2=O` (stereo not drawn) [Example #39, 7-chloro-5-(4-methyl-6-oxo-1,4,5,6-tetrahydropyridazin-3-yl)isoindolin-1-one], 7.98; to `CC1CC(=O)NN=C1c1cc(C#N)c2[nH]c(=O)ccc2c1` (stereo not drawn) [Example #40, 6-(4-methyl-6-oxo-1,4,5,6-tetrahydropyridazin-3-yl)-2-oxo-1,2-dihydroquinoline-8-carbonitrile], 7.92.
With `CC1CC(=O)NN=C1c1cc(Cl)c2c(c1)C(C)(C)NC2=O` (stereo not drawn) [Example #41, 7-chloro-3,3-dimethyl-5-(4-methyl-6-oxo-1,4,5,6-tetrahydropyridazin-3-yl)isoindolin-1-one], the pIC50 was 7.81.
Take `CC1CC(=O)NN=C1c1cc(Cl)c2[nH]c(=O)n(C)c2c1` (stereo not drawn) [Example #42, 4-chloro-1-methyl-6-(4-methyl-6-oxo-1,4,5,6-tetrahydropyridazin-3-yl)-1,3-dihydro-2H-benzo[d]imidazol-2-one]: the pIC50 was 7.79.
For `CC1CC(=O)NN=C1c1cc(F)c2c(c1)C1(CCC1)C(=O)N2` (stereo not drawn) [Example #43, 7′-fluoro-5′-(4-methyl-6-oxo-1,4,5,6-tetrahydropyridazin-3-yl)spiro[cyclobutane-1,3′-indolin]-2′-one], the pIC50 is 7.45.
For `CC1(C)C(=O)Nc2c(Cl)cc(C3=NNC(=O)CC3)cc21` [Example #44, 7-chloro-3,3-dimethyl-5-(6-oxo-1,4,5,6-tetrahydropyridazin-3-yl)indolin-2-one], the pIC50 was 7.03.
Next, `CC1CC(=O)NN=C1c1cc(F)c2nc(NCc3cnn(C)c3)sc2c1` (stereo not drawn) [Example #46, 6-(4-fluoro-2-(((1-methyl-1H-pyrazol-4-yl)methyl)amino)benzo[d]thiazol-6-yl)-5-methyl-4,5-dihydropyridazin-3 (2H)-one]: 8.47; `Cc1n[nH]c2c(Cl)cc(C3=NNC(=O)CC3C)cc12` (stereo not drawn) [Example #47, 6-(7-chloro-3-methyl-1H-indazol-5-yl)-5-methyl-4,5-dihydropyridazin-3 (2H)-one]: 8.40; `CC1CC(=O)NN=C1c1cc(F)c2c(c1)CC(=O)N2` (stereo not drawn) [Example #50, 7-fluoro-5-(4-methyl-6-oxo-1,4,5,6-tetrahydropyridazin-3-yl)indolin-2-one]: 8.31.
Turning to `C[C@H]1CC(=O)NN=C1c1cc(Cl)c2c(c1)C(C)(C)NC2=O` [Example #51, (S)-7-chloro-3,3-dimethyl-5-(4-methyl-6-oxo-1,4,5,6-tetrahydropyridazin-3-yl)isoindolin-2-one], the pIC50 is 6.47.
Turning to `CC1SC(=O)NN=C1c1cc2c(c(-c3ccc(S(C)(=O)=O)cc3)c1)NC(=O)C2` (stereo not drawn) [Example #63, 6-methyl-5-(7-(4-(methylsulfonyl)phenyl)-2-oxoindolin-5-yl)-3,6-dihydro-2H-1,3,4-thiadiazin-2-one], the pIC50 was 7.52.
For `CC1SC(=O)NN=C1c1cc(Br)c2c(c1)CCC(=O)N2` (stereo not drawn) [Example #65, 5-(8-bromo-2-oxo-1,2,3,4-tetrahydroquinolin-6-yl)-6-methyl-3,6-dihydro-2H-1,3,4-thiadiazin-2-one], the pIC50 is 8.37.
As for `C[C@H]1SC(=O)NN=C1c1cc(Cl)c2c(c1)C(C)(C)CC(=O)N2` [Example #67, (6R)-5-(8-chloro-4,4-dimethyl-2-oxo-1,2,3,4-tetrahydroquinolin-6-yl)-6-methyl-3,6-dihydro-2H-1,3,4-thiadiazin-2-one], the pIC50 is 7.32.
For `CC1SC(=O)NN=C1c1cc(C#N)c2c(c1)CC(=O)N2` (stereo not drawn) [Example #77, 5-(6-methyl-2-oxo-3,6-dihydro-2H-1,3,4-thiadiazin-5-yl)-2-oxoindoline-7-carbonitrile], the pIC50 is 7.38.
Regarding `C[C@@H]1SC(=O)NN=C1c1cc(F)c2c(c1)CC(=O)N2` [Example #78, (S)-5-(7-fluoro-2-oxoindolin-5-yl)-6-methyl-3,6-dihydro-2H-1,3,4-thiadiazin-2-one], the pIC50 was 8.11.
